Measurements taken from patent publication US4554367A, “Phosphonium organohalogenostannates-IV” (priority 1982, dated 1985).

Assays:
Venturia inaequalis = test: Residual protective action against Venturia inaequalis on apple shoots; type: in vivo; details: 0.02% of active substance, 15 days after infection
Method: Residual protective action against Venturia inaequalis on apple shoots
Apple cuttings with fresh shoots 10-20 cm long were sprayed with a spray liquor (0.02% of active substance) prepared from a wettable powder of the active substance. After 24 hours, the treated plants were infected with a conidia suspension of the fungus. The plants were then incubated at 90-100% relative atmospheric humidity for 5 days and were placed in a greenhouse at 20°-24° C. for 10 further days. The scab attack was evaluated 15 days after the infection. Compounds nos. 18, 5 and 9 and others inhibited the disease attack to less than 10%.

Pseudomonas aeruginosa = test: MIC against bacteria, strain B; type: cell-based; details: 24 h, 30° C., tested at 100 or 300 mg/liter
Method: (§1) Determination of the minimum inhibitory concentration (MIC) against bacteria
(§2) ONCs (cultures incubated overnight) of the bacteria strains A-F grown in Caso-Peptone broth (Merck) are each diluted […] in saline. An amount of the suspension is introduced into Caso-Peptone broth such that the bacteria are again diluted 1:1,000. The cultures are treated with 100 or 300 mg/liter of the phosphonium stannates shown in Table B. After incubation at 30° C. in a shaking water bath for 24 hours, the cultures are evaluated on the basis of cloudiness. The MIC is the concentration at which the broth is not clouded by bacterial growth.

Candida albicans = test: MIC against fungi, strain L; type: cell-based; details: malt extract agar
Method: (§3) Determination of the minimum inhibitory concentration (MIC) against fungi
(§4) The investigation is carried out in malt extract agar (Merck) by the known agar incorporation test using the fungi
(§5) For inhibition, the various compounds are in each case added in amounts such that concentrations of […] results in the agar. The concentrations (mg/liter) required for inhibition of the growth of the fungi (starting from traces of fungi dripped on) are illustrated in Table D.

Alternaria alternata = test: MIC against fungi, strain J; type: cell-based; details: malt extract agar
Method: as §3, §4, §5

[1] = tested on: Enteromorpha intestinalis; test: Action against Enteromorpha intestinalis; type: cell-based
Method: (b) Enteromorpha intestinalis
The action against the green alga Enteromorpha most important in sea water fouling is investigated in sterile-filtered sea water containing Erd-Schreiber solution. The solution is composed of a nutrient extract, phosphate and nitrate. Incubation of the Enteromorpha intestinalis takes place in a light thermostat at 18° C. under a 14 hours light/10 hours dark cycle.
The algae grown in this manner are exposed for a short time (4 hours), in sea water, to the products to be investigated. The minimum killing concentration (MKC) is determined by removing the algae from the sea water containing a certain amount of algicide at the end of the period of action, washing them and investigating them for growth or destruction after renewed incubation in fresh sea water for 6 to 8 weeks.
The minimum killing concentration (MKC) is the amount of substance required to harm the alga within a certain period of time to the extent that it can no longer recover in fresh sea water and dies off.
To determine the inhibitory concentration (MIC), the alga is kept in sea water containing biocide throughout the entire duration of the experiment (concentration tested: 0.1 and 0.5 mg/liter).

Aureobasidium pullulans = test: MIC against fungi, strain N; type: cell-based; details: malt extract agar
Method: as §3, §4
N Aureobasidium pullulans
as §5

Artemia salina = test: Action against Artemia salina; type: in vivo; design: key: 0: nauplii not affected; 1: slight change; 1-2: nauplii affected; 2: nauplii severely affected; 2-3: almost all nauplii dead; 3: all nauplii dead
From the text: Determination of the action against Artemia salina
The commercially available eggs are caused to hatch under powerful aeration. […]

Enterobacter aerogenes = test: MIC against bacteria, strain C; type: cell-based; details: 24 h, 30° C., tested at 100 or 300 mg/liter
Method: as §1, §2

Endomyces geotrichum = test: MIC against fungi, strain M; type: cell-based; details: malt extract agar
Method: as §3, §4, §5

[2] = tested on: Cladosporium cladosporioides; test: MIC against fungi, strain K; type: cell-based; details: malt extract agar
Method: as §3, §4
K Cladosporium cladosporioides
as §5

Chlorella vulgaris = test: Action against Chlorella vulgaris; type: cell-based; design: key to Growth in the medium: 1: no growth in the medium, 3 ppm have a growthinhibiting action; key to Growth on the agar: 2: no growth on the agar, 3 ppm have destroyed the algae within 6 hours; details: 3 mg/liter
Method: Determination of the action against algae
A Chlorella vulgaris culture grown for 14 days in algae nutrient medium is diluted 1:200 in algae nutrient medium. Each of the compounds listed in Table E is then added such that a concentration of 3 mg/liter results. After incubation for 6 hours, 10 μl are in each case withdrawn and dripped onto algae agar in order to determine the destructive action.

Penicillium funiculosum = test: MIC against fungi, strain I; type: cell-based; details: malt extract agar
Method: as §3, §4
I Penicillium funiculosum
as §5

Aspergillus phoenicia = test: MIC against fungi, strain H; type: cell-based; details: malt extract agar
Method: as §3, §4, §5

Chaetomium globosum = test: MIC against fungi, strain O; type: cell-based; details: malt extract agar
Method: as §3, §4, §5

Proteus vulgaris = test: MIC against bacteria, strain A; type: cell-based; details: 24 h, 30° C., tested at 100 or 300 mg/liter
Method: as §1, §2

Serratia marcenscens = test: MIC against bacteria, strain D; type: cell-based; details: 24 h, 30° C., tested at 100 or 300 mg/liter
Method: as §1, §2

Bacillus subtilis = test: MIC against bacteria, strain F; type: cell-based; details: 24 h, 30° C., tested at 100 or 300 mg/liter
Method: as §1, §2

Aspergillus niger = test: MIC against fungi, strain G; type: cell-based; details: malt extract agar
Method: as §3, §4

[3] = tested on: Alkaligenes denitrificans; test: MIC against bacteria, strain E; type: cell-based; details: 24 h, 30° C., tested at 100 or 300 mg/liter
Method: as §1, §2

Aureobasidium pullans = test: Growth on wood; details: 28° C., 4 weeks
Method: Small wooden blocks of spruce, 7×10×10 mm in size, are dried under a vacuum for 30 minutes. The small blocks are then subjected to impregnation under a vacuum, by being left in 20 ml of distilled water and the biocide under vacuum for 30 minutes, and are then exposed to pressure treatment (2 atmospheres gauge by compressed air) in water for 18 hours. The pieces of wood thus treated are either immediately dried or first subjected to bleaching in running water and then dried.
The small dried pieces of wood are placed on potato glucose agar and the wood and surrounding agar are innoculated with 0.1 ml of a spore suspension of Aureobasidium pullans. After incubation at 28° C. for 4 weeks, the growth is evaluated according to the following plan.
4=No growth on the wood, inhibitory zone up to 2 mm
5=No growth on the wood, inhibitory zone greater than 2 mm

For `CCCCCCCCCCCCCC[P+](CCCC)(CCCC)CCCC.[Cl][Sn-]([Cl])([CH]1CCCCC1)([CH]1CCCCC1)[CH]1CCCCC1` [Example 18, tri-n-bytyl-n-tetradecyl-phosphonium tricyclohexyldichlorostannate], the “disease (scab) attack (inhibited to less than)” value (Venturia inaequalis) was “less than 10%”.

Compound `CCCCCCCCCCCCCC[P+](CCCC)(CCCC)CCCC.[CH3][Sn-]([CH3])([Cl])([Cl])[Cl]` [Example 20] has an MIC (Pseudomonas aeruginosa) of 100 µg/mL, an MIC against fungi (Candida albicans) of 10 µg/mL and an MIC against fungi (Alternaria alternata) of 50 µg/mL. The “Destruction 5 mg/liter” value ([1]; 5 mg/liter, 4 hours exposure in sea water, re-incubation 6 to 8 weeks) was “yes”, the MIC ([1]; kept in sea water containing biocide throughout, tested 0.1 and 0.5 mg/liter) was greater than 0.5 µg/mL and the MIC against fungi (Aureobasidium pullulans) was 10 µg/mL. For the same compound, the “Action against Artemia salina” value (Artemia salina; 0.25 mg/liter, 6 hours) was 0, the “Action against Artemia salina” value (Artemia salina; 0.25 mg/liter, 24 hours) was 1-2 and the “Action against Artemia salina” value (Artemia salina; 0.25 mg/liter, 48 hours) was 2-3. For the same compound, the “Action against Artemia salina” value (Artemia salina; 0.5 mg/liter, 6 hours) was 1, the “Action against Artemia salina” value (Artemia salina; 0.5 mg/liter, 24 hours) was 2 and the “Action against Artemia salina” value (Artemia salina; 0.5 mg/liter, 48 hours) was 3. The “Action against Artemia salina” value (Artemia salina; 1 mg/liter, 6 hours) was 2, the “Action against Artemia salina” value (Artemia salina; 1 mg/liter, 24 hours) was 2-3 and the “Action against Artemia salina” value (Artemia salina; 1 mg/liter, 48 hours) was 3. The “Action against Artemia salina” value (Artemia salina; 2.5 mg/liter, 6 hours) was 1-2, the “Action against Artemia salina” value (Artemia salina; 2.5 mg/liter, 24 hours) was 3 and the “Action against Artemia salina” value (Artemia salina; 2.5 mg/liter, 48 hours) was 3. For the same compound, the MIC (Enterobacter aerogenes) was 100 µg/mL, the MIC against fungi (Endomyces geotrichum) was 10 µg/mL and the MIC against fungi [2] was 10 µg/mL. The “Growth on the agar” value (Chlorella vulgaris; 6 hours exposure (algae-destruction action)) was 2, the “Growth in the medium” value (Chlorella vulgaris; 14 days (inhibition of growth)) was 1 and the MIC against fungi (Penicillium funiculosum) was 10 µg/mL. It also gave an MIC against fungi (Aspergillus phoenicia) of 50 µg/mL, an MIC against fungi (Chaetomium globosum) of 10 µg/mL and an MIC (Proteus vulgaris) of 100 µg/mL. The MIC (Serratia marcenscens) was 100 µg/mL, the MIC (Bacillus subtilis) was 100 µg/mL and the MIC against fungi (Aspergillus niger) was 50 µg/mL. It also gave an MIC [3] of 100 µg/mL.

With `OC[P+](CO)(CO)CO.[Cl][Sn-]([Cl])([CH]1CCCCC1)([CH]1CCCCC1)[CH]1CCCCC1` [Example 26] the “Growth on wood, leached for 5 days” value (Aureobasidium pullans; 0.01% in H2O) was 4 (No growth on the wood, inhibitory zone up to 2 mm), the “Growth on wood, not leached” value (Aureobasidium pullans; 0.01% in H2O) was 5 (No growth on the wood, inhibitory zone greater than 2 mm) and the “Growth on wood, leached for 5 days” value (Aureobasidium pullans; 0.05% in H2O) was 5 (No growth on the wood, inhibitory zone greater than 2 mm). For the same compound, the “Growth on wood, not leached” value (Aureobasidium pullans; 0.05% in H2O) was 5 (No growth on the wood, inhibitory zone greater than 2 mm).
